Experimental data from US20040214221A1, “High density labeling of DNA with modified or "chromophore" carrying nucleotides and DNA polymerases used” (priority 1999, published 2004).
Like-named read-outs stand apart in the source and are kept apart here.

Key:
[1] = system: Klenow-fragment of Chy DNA pol I; experiment: Primer extension with modified dNTPs, Chy Klenow polymerase; format: biochemical, Carboxydothermus hydrogenoformans; conditions: template NucT15
[2] = system: Tgo exo^− polymerase; format: biochemical, Thermococcus species
[3] = biological target: Vent exo^− polymerase (Thermococcus litoralis, UniProt P30317, D141A/DEL1082-1471/DEL495-1032/E143A); experiment: Primer extension with modified dNTPs, Vent exo- polymerase; format: biochemical, Thermococcus species; conditions: template NucT15 (18 possible)
Vent exo^− polymerase, sequence (P30317 with tags, fused parts or gaps D141A/DEL1082-1471/DEL495-1032/E143A): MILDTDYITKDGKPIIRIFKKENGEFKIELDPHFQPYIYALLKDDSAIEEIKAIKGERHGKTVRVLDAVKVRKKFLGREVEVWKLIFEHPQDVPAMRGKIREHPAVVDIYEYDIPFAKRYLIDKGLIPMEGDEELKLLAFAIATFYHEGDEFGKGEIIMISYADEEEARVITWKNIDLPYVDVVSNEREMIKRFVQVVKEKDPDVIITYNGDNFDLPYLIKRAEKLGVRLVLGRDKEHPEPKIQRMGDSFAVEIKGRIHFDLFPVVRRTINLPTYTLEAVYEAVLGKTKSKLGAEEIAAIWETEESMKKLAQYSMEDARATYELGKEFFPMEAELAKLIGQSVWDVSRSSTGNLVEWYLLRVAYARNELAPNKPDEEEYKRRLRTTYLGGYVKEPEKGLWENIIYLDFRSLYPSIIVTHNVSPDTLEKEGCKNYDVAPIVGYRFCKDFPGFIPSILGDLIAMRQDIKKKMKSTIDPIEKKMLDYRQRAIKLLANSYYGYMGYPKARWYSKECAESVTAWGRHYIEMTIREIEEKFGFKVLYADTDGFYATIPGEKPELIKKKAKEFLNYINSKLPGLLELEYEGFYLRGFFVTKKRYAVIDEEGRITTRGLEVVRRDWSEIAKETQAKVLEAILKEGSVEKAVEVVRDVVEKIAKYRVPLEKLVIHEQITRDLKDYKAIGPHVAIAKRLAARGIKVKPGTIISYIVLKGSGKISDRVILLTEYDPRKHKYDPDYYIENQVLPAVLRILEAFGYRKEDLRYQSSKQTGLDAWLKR

In the case of Cc1c(CC(=O)NCCCCCC(=O)NC/C=C/c2cn([C@H]3C[C@H](O)[C@@H](COP(=O)(O)OP(=O)(O)OP(=O)(O)O)O3)c(=O)[nH]c2=O)c(=O)oc2cc(N)ccc12 [AMCA-6-dUTP], the “substrate activity” value [1] is reported as “high substrate activity” and the “elongation of Hex7c7Gd stretch with dUTP derivative” value (“elongation of Hex7c7Gd stretch” for short) [2] is reported as “complete elongation”.
O=C(CCCCCNC(=O)CCCNC(=O)CCCC[C@@H]1SC[C@@H]2NC(=O)N[C@@H]21)NC/C=C/c1cn([C@H]2C[C@H](O)[C@@H](COP(=O)(O)OP(=O)(O)OP(=O)(O)O)O2)c(=O)[nH]c1=O [Biotin-16-dUTP] was tested, and the “elongation of Hex7c7Gd stretch” value [2] was “a high molecular weight product is formed”, the “insertions in neighbouring positions” value [2] was 18 and the “product at lower polymerase concentration” value [2] was “full length products were detectable”.
CCCCC#Cc1cn([C@H]2C[C@H](O)[C@@H](COP(=O)(O)OP(=O)(O)OP(=O)(O)O)O2)c2ncnc(N)c12 [Hex^7c^7Ad, 7-Hexinyl-7-Desaza-dATP] was tested, and the “adjacent positions into which derivative was incorporated” value [2] was 15.
With CCCCC#Cc1cn([C@H]2C[C@H](O)[C@@H](COP(=O)(O)OP(=O)(O)OP(=O)(O)O)O2)c2nc(N)[nH]c(=O)c12 [Hex^7c^7Gd, 7-Hexinyl-7-desaza-dGTP] the consecutive incorporations [2] was “five” and the subsequent positions polymerized [2] was “up to 21”.
Cy5-10-dUTP was tested, and the positions inserted [3] was 13.
In the case of DIG-11-dUTP, the “product at lower polymerase concentration” value [2] is reported as “full length products were detectable” and the “substrate activity / incorporation” value [2] is reported as “high substrate activity”.
With Fluorescein-12-dUTP the “elongation of Hex7c7Gd stretch” value ([2]; template NucT3, 50 μM each, 0,1 and 1 unit polymerase) was “complete elongation” and the “product at lower polymerase concentration” value ([2]; template NucT15, 0,1 unit/reaction) was “full length products were detectable”.
With “Rhodamin-green-5(6)-carboxyamido-[5-(3-aminoallyl)-2′desoxy-uridin-5′-triphosphate] [Rhodamine-green-dUTP]” the “insertions in neighbouring positions” value [2] was 15-16.
“Rhodamin-green-5(6)-carboxyamido-ε-aminocaproyl-[5-(3-aminoallyl)-2′desoxy-uridin-5′-triphosphate] [Rhodamine-green-X-dUTP]” was tested, and the “insertions in neighbouring positions” value [2] was “up to 18”, the “major products (number of insertions)” value [2] was 13-17 and the “substrate activity / incorporation” value [2] was “very good substrate for the polymerase”.
In the case of TMR-6-dUTP [TM-Rhodamine-dUTP], the positions inserted [3] is reported as 14.
